Where two headings read alike, the source gives them in different places.
What was measured:
[1] = target: T1, HscPheRS (human cytosolic phenylalanyl-tRNA synthetase, alpha subunit) (Homo sapiens, UniProt Q9Y285); test: malachite green aminoacylation assay with purified enzyme; type: biochemical; details: read-out: BRD7929
T1 sequence (Q9Y285 2-508): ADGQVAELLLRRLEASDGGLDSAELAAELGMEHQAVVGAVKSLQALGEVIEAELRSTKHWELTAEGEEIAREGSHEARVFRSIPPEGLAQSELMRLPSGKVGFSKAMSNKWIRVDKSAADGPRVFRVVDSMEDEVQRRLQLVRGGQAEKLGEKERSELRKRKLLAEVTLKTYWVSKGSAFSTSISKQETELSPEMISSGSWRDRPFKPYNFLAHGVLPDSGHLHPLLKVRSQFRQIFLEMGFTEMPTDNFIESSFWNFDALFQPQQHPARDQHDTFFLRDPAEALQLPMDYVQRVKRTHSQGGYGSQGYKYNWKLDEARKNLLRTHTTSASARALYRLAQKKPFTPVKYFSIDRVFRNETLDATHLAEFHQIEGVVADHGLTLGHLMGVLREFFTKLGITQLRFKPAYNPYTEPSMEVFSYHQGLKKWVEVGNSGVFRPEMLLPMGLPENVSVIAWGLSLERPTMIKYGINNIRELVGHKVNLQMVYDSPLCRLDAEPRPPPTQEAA
T1 sequence (Q9NSD9 1-589 partner): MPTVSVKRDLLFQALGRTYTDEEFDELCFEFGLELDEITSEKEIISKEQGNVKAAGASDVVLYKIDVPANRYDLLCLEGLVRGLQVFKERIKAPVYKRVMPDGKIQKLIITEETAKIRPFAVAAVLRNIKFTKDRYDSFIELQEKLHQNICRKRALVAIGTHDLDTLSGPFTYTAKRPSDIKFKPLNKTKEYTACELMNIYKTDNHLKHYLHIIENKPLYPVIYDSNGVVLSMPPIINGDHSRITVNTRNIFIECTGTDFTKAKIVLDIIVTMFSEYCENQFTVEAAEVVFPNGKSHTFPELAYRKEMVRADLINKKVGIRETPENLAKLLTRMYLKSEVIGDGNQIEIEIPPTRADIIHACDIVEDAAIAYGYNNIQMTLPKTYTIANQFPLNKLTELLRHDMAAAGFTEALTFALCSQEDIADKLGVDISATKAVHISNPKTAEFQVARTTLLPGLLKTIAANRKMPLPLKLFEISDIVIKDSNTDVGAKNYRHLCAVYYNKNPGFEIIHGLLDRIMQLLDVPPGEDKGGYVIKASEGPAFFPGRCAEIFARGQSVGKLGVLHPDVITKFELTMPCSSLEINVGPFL

[2] = target: T2, TgcPheRS (Toxoplasma gondii cytosolic phenylalanyl-tRNA synthetase, alpha subunit) (Toxoplasma gondii, UniProt A0A125YPN6+S8EZ50); test: thermal shift assay; type: binding
T2 sequence (A0A125YPN6 1-525): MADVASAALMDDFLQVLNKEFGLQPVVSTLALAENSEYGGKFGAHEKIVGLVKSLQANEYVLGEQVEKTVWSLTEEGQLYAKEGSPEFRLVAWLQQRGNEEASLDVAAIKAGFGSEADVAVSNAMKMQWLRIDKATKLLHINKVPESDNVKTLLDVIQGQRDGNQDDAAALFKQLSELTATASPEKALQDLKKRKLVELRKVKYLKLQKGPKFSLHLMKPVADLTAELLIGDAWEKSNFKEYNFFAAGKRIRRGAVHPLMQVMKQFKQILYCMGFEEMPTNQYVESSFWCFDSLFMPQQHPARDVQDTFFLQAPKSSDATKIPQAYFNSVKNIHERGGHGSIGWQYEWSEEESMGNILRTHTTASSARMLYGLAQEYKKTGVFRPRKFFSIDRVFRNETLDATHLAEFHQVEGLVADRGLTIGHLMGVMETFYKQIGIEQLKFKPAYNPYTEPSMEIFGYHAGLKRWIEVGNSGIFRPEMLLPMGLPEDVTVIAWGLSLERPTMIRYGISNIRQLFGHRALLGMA
T2 sequence (S8EZ50 1-675): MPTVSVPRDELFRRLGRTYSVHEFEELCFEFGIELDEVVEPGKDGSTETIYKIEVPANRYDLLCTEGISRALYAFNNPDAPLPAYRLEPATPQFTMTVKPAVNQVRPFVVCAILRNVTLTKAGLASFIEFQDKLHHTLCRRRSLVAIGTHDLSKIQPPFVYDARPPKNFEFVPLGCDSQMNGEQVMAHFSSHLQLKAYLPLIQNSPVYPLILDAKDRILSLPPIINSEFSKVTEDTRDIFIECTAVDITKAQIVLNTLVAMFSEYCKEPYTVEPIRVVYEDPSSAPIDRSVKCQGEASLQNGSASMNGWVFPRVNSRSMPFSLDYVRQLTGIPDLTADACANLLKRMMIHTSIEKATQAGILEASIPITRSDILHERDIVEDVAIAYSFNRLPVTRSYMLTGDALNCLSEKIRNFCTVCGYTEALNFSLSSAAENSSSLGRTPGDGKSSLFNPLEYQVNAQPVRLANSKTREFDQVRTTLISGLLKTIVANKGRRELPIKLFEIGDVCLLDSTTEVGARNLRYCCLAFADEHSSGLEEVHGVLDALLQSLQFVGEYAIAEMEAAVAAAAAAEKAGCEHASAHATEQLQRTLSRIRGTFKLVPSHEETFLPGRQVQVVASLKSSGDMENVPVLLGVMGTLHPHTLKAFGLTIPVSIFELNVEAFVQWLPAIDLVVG

[3] = target: T1, HscPheRS (human cytosolic phenylalanyl-tRNA synthetase, alpha subunit); test: malachite green aminoacylation assay with purified enzyme; type: biochemical
[4] = target: T2, TgcPheRS (Toxoplasma gondii cytosolic phenylalanyl-tRNA synthetase, alpha subunit); test: as above; type: biochemical
[5] = target: T1, HscPheRS (human cytosolic phenylalanyl-tRNA synthetase, alpha subunit); test: as above; type: biochemical; details: read-out: BRD2108
[6] = target: T2, TgcPheRS (Toxoplasma gondii cytosolic phenylalanyl-tRNA synthetase, alpha subunit); test: as above; type: biochemical; remark: listed apart in the source

COc1ccc(NC(=O)N2CCCCN3[C@H](CN(C)C)[C@H](c4ccc(C#Cc5ccccc5)cc4)[C@@H]3C2)cc1 [BRD7929]
IC50 [1]: 18 µM | BRD7929 [2]: 11.6 °C

COc1ccc(NC(=O)N2CCCN3CC[C@H](c4ccc(C#CC5=CCCCC5)cc4)[C@@H]3C2)cc1 [mCMY416]
IC50 [3]: 3.58 µM | IC50 [4]: 240 nM

BRD2108
IC50 [5]: 15.6 µM | IC50 [6]: 420 nM

— PMC11299587 (ACS infectious diseases, 2024)
